Data published in PMC12187842, “A novel molecule targeting neutrophil-mediated B-1a cell trogocytosis attenuates sepsis-induced acute lung injury” (Frontiers in Immunology, 2025).

Tested on: CLP-induced sepsis in C57BL/6 mice
Assay: Plasma organ injury markers in CLP mice by colorimetric enzymatic assays
Format: in vivo, mouse
Conditions: C11 10 mg/kg i.p. once after CLP (Figure 5 legend: 10 μg/kg); 20 h; n = 5-7/group; vs. CLP vehicle
Source text: Mice were anesthetized with 2% isoflurane in oxygen, and sepsis was induced via cecal ligation and puncture (CLP) ([26]). A 1-cm midline abdominal incision was made to expose the cecum, which was ligated 1-cm proximal to its end using a 4-0 silk suture. The cecum then was perforated with a single through-and-through puncture using a 22-gauge needle, positioned midway between the ligation and the tip of the cecum. A small amount of fecal material was gently extruded from the perforation sites to confirm the patency of the punctures, and the cecum was subsequently returned to the peritoneal cavity. Following abdominal closure, resuscitation was provided via subcutaneous (s.c.) injection of 500 µL normal saline. Postoperative analgesia was administered with a single dose of 0.1 mg/kg buprenorphine. To evaluate the effects of the therapeutic peptide (named Compound 11 or C11) (synthesized by GenScript USA Inc., Piscataway, NJ) on sepsis, C57BL/6 mice were assigned to three experimental groups: the Sham group, the CLP group treated with vehicle, and the CLP group treated with C11 (10 mg/kg). C11 was dissolved in DMSO (10 mg/mL) and diluted with saline to a total volume of 500 µL. The peptide was administered once, immediately after surgery, via intraperitoneal (i.p.) injection. Mice in the vehicle group received an equivalent volume of DMSO and normal saline via i.p. injection. After 20 h, lungs were harvested, and blood was collected via cardiac puncture. For the survival study, animals received a single subcutaneous (s.c.) injection of 0.5 mg/kg imipenem at the end of the CLP.
Blood was collected by heart puncture. Plasma levels of organ injury markers (ALT: alanine transaminase, AST: aspartate transferase, and LDH: lactate dehydrogenase) were assessed by using colorimetric enzymatic assays (MedTest Dx, Canton, MI) according to the manufacturer’s protocol. Plasma levels of pro-inflammatory cytokines (TNFα: tumor necrosis factor α, and IL-6: interleukin-6) were measured by using mouse-specific ELISA kits (BD Biosciences).

126-ELKNRTVSWFS-136 [Compound C11]
markedly reduced: blood ALT | blood AST | blood LDH
